This note sets out measurements from US7504362B2, “Pesticidal compositions” (Merial Limited, priority 2002, dated 2009).

In the experiment the test system is Ctenocephalides felis, Diabrotica undecimpunctata, Nephotettix cincticeps or Rhipicephalus sanguineus. Kind of experiment: Pooled statement: active in one or more of the above tests (Methods A to E). To be noted: active = reaching the threshold of Method A, B, C, D or E; test not given per compound. Format: in vivo. As to the method:
The following representative test procedures, using compounds of the invention, were conducted to determine the parasiticidal and pesticidal activity of compounds of the invention.
A test container was filled with 10 adults of Ctenocephalides felis. A glass cylinder was closed on one end with parafilm and placed on top of the test container. The test compound solution was then pipetted into bovine blood and added to the glass cylinder. The treated Ctenocephalides felis were held in this artificial dog test (blood 37° C., 40-60% relative humidity; Ctenocephalides felis 20-22° C., 40-60% relative humidity) and assessment performed at 24 and 48 hours after application. Active compounds gave at least 90% control of Ctenocephalides felis at a test concentration of 5 ppm or less.
Two days before application, seeds of maize were soaked in water under warm conditions to elicit fast germination. One day before application, eggs of Diabrotica undecimpunctata were transferred to one half of a Japanese filter paper placed in a plastic petri dish. Afterwards, a sprouted maize seed was placed on a moistened pad beside the filter paper. Three drops of 200 microliters of test compound solution were carefully pipetted onto the egg. The remainder of the solution was placed on the maize and then the Petri dish was closed. The treated eggs in the Petri dishes were held in a climate chamber for 6 days. The compound efficacy (percentage of dead eggs and/or larvae in comparison to untreated control) was assessed 6 days after application using a binocular microscope.
Active compounds gave at least 90% control of Diabrotica undecimpunctata at a test concentration of 10 ppm.
The leaves of 12 rice plants having a stem length of 8 cm were dipped for 5 seconds into an aqueous solution of the formulated test compound. After the solution had run off, the rice plants treated in this manner were placed in a Petri dish and populated with about 20 larvae (L3 stage) of Nephotettix cincticeps. The Petri dish was closed and then stored in a climate chamber (16 hours of light/day, 25° C., 40-60% relative humidity). After 6 days storage, the percentage mortality of leafhopper larvae was determined.
Active compounds gave at least 98% mortality of Nephotettix cinciceps larvae at a test concentration of 100 ppm.
Solutions of the test compounds were dropped onto filter paper, dried and the filter paper placed into test tubes and infested with 10 adults of Ctenocephalides felis. The treated Ctenocephalides felis were held in a climate chamber (26° C., 80% RH) and the percentage efficacy assessed 24 hours and 48 hours after application in comparison with the untreated control.
Active compounds gave at least 70% contact control of Ctenocephalides felis at a test concentration of 1000 ppm.
Solutions of the test compounds were dropped onto filter paper, dried and the filter paper placed into test tubes and infested with 20-30 larvae (L1) of Rhipicephalus sanguineus and the tubes closed with a clip. The treated Rhipicephalus sanguineus were held in a climate chamber (25° C., 90% RH) and the percentage efficacy assessed 24 hours after application in comparison with the untreated control. Active compounds gave at least 70% contact control of Rhipicephalus sanguineus at a test concentration of 100 ppm.
As to `CN(c1c([S+]([O-])C(F)(F)F)c(C#N)nn1-c1c(Cl)cc(C(F)(F)F)cc1Cl)S(=O)(=O)c1ccc(Cl)cc1` (centres unmarked) [Compound 5-48], the “active in one or more of the above tests” value is on record as “active”. Consider `CN(c1c([S+]([O-])C(F)(F)F)c(C#N)nn1-c1c(Cl)cc(C(F)(F)F)cc1Cl)S(=O)(=O)Cc1cc(C(F)(F)F)cc(C(F)(F)F)c1` (centres unmarked) [Compound 2-94], for which the “active in one or more of the above tests” value is reported as “active”. The entry for `Cc1cc(C)c(S(=O)(=O)N(C)c2c(SC(F)(F)F)c(C#N)nn2-c2c(Cl)cc(C(F)(F)F)cc2Cl)c(C)c1` [Compound 5-40] is “active”; for `CN(c1c(SC(F)(F)F)c(C#N)nn1-c1c(Cl)cc(C(F)(F)F)cc1Cl)S(=O)(=O)Cc1cccs1` [Compound 4-33] it is “active”. The entry for `CC(C)S(=O)(=O)N(C)c1c(SC(F)(F)F)c(C#N)nn1-c1c(Cl)cc(C(F)(F)F)cc1Cl` [Compound 1-122] is “active”; for `CCS(=O)(=O)N(C)c1c(SC(F)(F)F)c(C#N)nn1-c1c(Cl)cc(C(F)(F)F)cc1Cl` [Compound 1-44] it is “active”. Under `CN(c1c([S+]([O-])C(F)(F)F)c(C#N)nn1-c1c(Cl)cc(C(F)(F)F)cc1Cl)S(=O)(=O)c1cccc(C(F)(F)F)c1` (centres unmarked) [Compound 5-60] stands “active”. On to `CCCCCCCCS(=O)(=O)N(C)c1c([S+]([O-])C(F)(F)F)c(C#N)nn1-c1c(Cl)cc(C(F)(F)F)cc1Cl` (centres unmarked) [Compound 1-93], for which the “active in one or more of the above tests” value was “active”. Under `CN(c1c(S(=O)(=O)C(F)(F)F)c(C#N)nn1-c1c(Cl)cc(C(F)(F)F)cc1Cl)S(=O)(=O)Cc1ccccc1` [Compound 2-30] stands “active”; under `CN(c1c(SC(F)(F)F)c(C#N)nn1-c1c(Cl)cc(C(F)(F)F)cc1Cl)S(=O)(=O)Cc1ccc(Cl)s1` [Compound 4-32], “active”; under `CN(c1c([S+]([O-])C(F)(F)F)c(C#N)nn1-c1c(Cl)cc(C(F)(F)F)cc1Cl)S(=O)(=O)c1ccc(C(F)(F)F)cc1` (centres unmarked) [Compound 5-61], “active”. On to `CN(c1c(SC(F)(F)F)c(C#N)nn1-c1c(Cl)cc(C(F)(F)F)cc1Cl)S(=O)(=O)Cc1cccc(C(F)(F)F)c1` [Compound 2-57], for which the “active in one or more of the above tests” value is reported as “active”. Under `CN(c1c(SC(F)(F)F)c(C#N)nn1-c1c(Cl)cc(C(F)(F)F)cc1Cl)S(C)(=O)=O` [Compound 1-2] stands “active”; under `CCCCS(=O)(=O)N(C)c1c([S+]([O-])C(F)(F)F)c(C#N)nn1-c1c(Cl)cc(C(F)(F)F)cc1Cl` (centres unmarked) [Compound 1-87], “active”; under `CCCCCc1ccc(CS(=O)(=O)N(C)c2c(SC(F)(F)F)c(C#N)nn2-c2c(Cl)cc(C(F)(F)F)cc2Cl)cc1` [Compound 2-148], “active”.

In the case of `CN(c1c([S+]([O-])C(F)(F)F)c(C(N)=S)nn1-c1c(Cl)cc(C(F)(F)F)cc1Cl)S(=O)(=O)Cc1ccccc1` (centres unmarked) [Compound 7-32], the “active in one or more of the above tests” value is “active”.

For the compound `CN(c1c([S+]([O-])C(F)(F)F)c(C#N)nn1-c1c(Cl)cc(C(F)(F)F)cc1Cl)S(=O)(=O)c1cccc(Cl)c1` (centres unmarked) [Compound 5-47], the “active in one or more of the above tests” value is reported as “active”. The entry for `CN(c1c(SC(F)(F)F)c(C#N)nn1-c1c(Cl)cc(C(F)(F)F)cc1Cl)S(=O)(=O)Cc1ccccc1` [Compound 2-2] is “active”; for `CN(c1c(SC(F)(F)F)c(C#N)nn1-c1c(Cl)cc(C(F)(F)F)cc1Cl)S(=O)(=O)c1ccc(C(C)(C)C)cc1` [Compound 5-38] it is “active”.

For the compound `CN(c1c(S(=O)(=O)C(F)(F)F)c(C#N)nn1-c1c(Cl)cc(C(F)(F)F)cc1Cl)S(=O)(=O)Cc1ccc(Cl)cc1` [Compound 2-115], the “active in one or more of the above tests” value is “active”.
